From publication PMC9229919, “4-Aminoquinoline-Based Adamantanes as Potential Anticholinesterase Agents in Symptomatic Treatment of Alzheimer’s Disease” (Pharmaceutics, 2022)
Where two headings read alike, the source gives them in different places.

How the values were obtained:
purified human BChE = target: T1, purified human BChE (Homo sapiens, UniProt P06276); assay: biochemical; type: biochemical
T1 construct: possibly also a gift of Dr Florian Nachon (the sentence is ambiguous)
Method: (§1) Acetylthiocholine (ATCh) and 5,5′-dithiobis(2-nitrobenzoic acid) (DTNB) were purchased from Sigma-Aldrich, St. Louis, MO, USA. ATCh was dissolved in water and DTNB in 0.1 M sodium phosphate buffer (pH 7.4). The 4-aminoquinilines were dissolved in DMSO and all further dilutions were made in water.
(§2) The sources of AChE and BChE were purified human BChE and recombinant human AChE that was kindly provided by Dr Florian Nachon (Département de Toxicologie, Armed Forces Biomedical Research Institute, Brétigny-sur-Orge, France). […] The enzymes were diluted in sodium phosphate buffer 0.1 M (pH 7.4) containing 0.1% BSA.
(§3) Enzyme activities were measured spectrophotometrically using a slightly modified Ellman method, as described earlier. […] At least three inhibitor concentrations for each substrate concentration were used in at least three experiments. The apparent inhibition constant (Ki,app) was calculated using the Hunter–Downs Equation and linear regression analysis:(1) Ki,app=vi·i/v0−vi=Ki+Ki/KS·s where the y-intercept determines the enzyme-inhibitor dissociation constant (Ki), while the x-intercept determines the enzyme-substrate dissociation constant, KS.
(§4) The Hunter–Downs Equation was used under the assumption that the substrate, due to relatively low concentrations used in experiments, would bind only to the catalytic site of the enzymes, while the inhibitors would bind to both CAS and/or PAs. This allowed the type of inhibition to be determined from Ki,app vs. substrate concentration ([S]) dependency on Hunter–Downs plot.
(§5) The final content of DMSO in the measurements was up to 0.2%. […] The measurements were performed at 25 °C on a Tecan Infinite M200Pro plate reader (Tecan Austria GmbH, Salzburg, Austria).

recombinant human AChE = target: T2, recombinant human AChE (Homo sapiens, UniProt P22303); assay: biochemical; type: biochemical; conditions: for IS: IS = Ki(BChE)/Ki(AChE), IS > 1 selective to AChE
T2 construct: gift of Dr Florian Nachon (Armed Forces Biomedical Research Institute, Brétigny-sur-Orge, France)
Method: as §1, §2, §3, §4, §5

[1] = Ferric reducing antioxidant power (FRAP) assay; conditions: mean ± standard error of three experiments;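 note: expressed as µM Fe2+ equivalents from an FeSO4·7H2O standard curve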
Method: . All the chemicals were purchased from Sigma-Aldrich (St. Louis, MO, USA), except for tripyridyltriazine (TPTZ) (Fluka, Buchs, Switzerland) and FeCl3 (Kemika, Zagreb, Croatia). The FRAP assay was assessed according to Benzie and Strain [53] with slight procedure adjustments for 96-well microplates. The method is based on the reduction of the ferric-tripyridyltriazine (Fe^3+-TPTZ) complex to ferrous tripyridyltriazine (Fe^2+-TPTZ) by the action of electron-donating compounds at a low pH. Briefly, the FRAP reagent was prepared by mixing acetate buffer (300 mM, pH 3.6), a solution of 10 mM TPTZ in 40 mM HCl, and 20 mM FeCl3 at 10:1:1 (v/v/v). Then, 240 μL of FRAP reagent and 10 μL of sample solution were added to a 96-well plate and incubated at 37 °C for 60 min. The absorbance was measured at 593 nm using a microplate reader (Infinite M200PRO, Tecan Austria GmbH, Salzburg, Austria) against a blank. The reducing capacity was determined for 10 and 100 µM compound concentrations. […]. All measurements were performed in three independent experiments. FRAP values, denominating the reduction of ferric-tripyridyltriazine (Fe^3+-TPTZ) to ferrous tripyridyltriazine (Fe^2+-TPTZ) by 4-aminoquinolines were calculated based on a standard curve obtained using […].

[2] = Reverse-phase thin-layer chromatographic lipophilicity (RF, RM0); type: physicochemical; conditions: for RM0: intercept of RM = RM0 + bC; for b: slope of RM = RM0 + bC; for RF, Methanol/Water/Hydrochloric acid (conc.), mobile phase I / RF, Dioxane/Water/Hydrochloric acid (conc.), mobile phase II / RF, Methanol/Water/Hydrochloric acid (conc.), mobile phase II / RF, Acetone/Water/Hydrochloric acid (conc.), mobile phase III / RF, Dioxane/Water/Hydrochloric acid (conc.), mobile phase III / RF, Methanol/Water/Hydrochloric acid (conc.), mobile phase III / RF, Dioxane/Water/Hydrochloric acid (conc.), mobile phase IV / RF, Acetone/Water/Hydrochloric acid (conc.), mobile phase IV / RF, Methanol/Water/Hydrochloric acid (conc.), mobile phase IV / RF, Acetone/Water/Hydrochloric acid (conc.), mobile phase IX / RF, Methanol/Water/Hydrochloric acid (conc.), mobile phase IX / RF, Dioxane/Water/Hydrochloric acid (conc.), mobile phase V / RF, Acetone/Water/Hydrochloric acid (conc.), mobile phase V / RF, Methanol/Water/Hydrochloric acid (conc.), mobile phase V / RF, Dioxane/Water/Hydrochloric acid (conc.), mobile phase VI / RF, Acetone/Water/Hydrochloric acid (conc.), mobile phase VI / RF, Methanol/Water/Hydrochloric acid (conc.), mobile phase VI / RF, Acetone/Water/Hydrochloric acid (conc.), mobile phase VII / RF, Methanol/Water/Hydrochloric acid (conc.), mobile phase VII / RF, Acetone/Water/Hydrochloric acid (conc.), mobile phase VIII / RF, Methanol/Water/Hydrochloric acid (conc.), mobile phase VIII: RP-18 silica; for RF, Methanol/Water/Hydrochloric acid (conc.), mobile phase I: I = 90%MeOH/5%H2O/5%HCl; for RF, Dioxane/Water/Hydrochloric acid (conc.), mobile phase II: II = 80%Dioxane/15%H2O/5%HCl; for RF, Methanol/Water/Hydrochloric acid (conc.), mobile phase II: II = 85%MeOH/10%H2O/5%HCl; for RF, Acetone/Water/Hydrochloric acid (conc.), mobile phase III: III = 70%AC/25%H2O/5%HCl; for RF, Dioxane/Water/Hydrochloric acid (conc.), mobile phase III: III = 70%Dioxane/25%H2O/5%HCl; for RF, Methanol/Water/Hydrochloric acid (conc.), mobile phase III: III = 80%MeOH/15%H2O/5%HCl; for RF, Dioxane/Water/Hydrochloric acid (conc.), mobile phase IV: IV = 60%Dioxane/35%H2O/5%HCl; for RF, Acetone/Water/Hydrochloric acid (conc.), mobile phase IV: IV = 65%AC/30%H2O/5%HCl; for RF, Methanol/Water/Hydrochloric acid (conc.), mobile phase IV: IV = 75%MeOH/20%H2O/5%HCl; for RF, Acetone/Water/Hydrochloric acid (conc.), mobile phase IX: IX = 40%AC/55%H2O/5%HCl; for RF, Methanol/Water/Hydrochloric acid (conc.), mobile phase IX: IX = 50%MeOH/45%H2O/5%HCl; for RF, Dioxane/Water/Hydrochloric acid (conc.), mobile phase V: V = 50%Dioxane/45%H2O/5%HCl; for RF, Acetone/Water/Hydrochloric acid (conc.), mobile phase V: V = 60%AC/35%H2O/5%HCl; for RF, Methanol/Water/Hydrochloric acid (conc.), mobile phase V: V = 70%MeOH/25%H2O/5%HCl; for RF, Dioxane/Water/Hydrochloric acid (conc.), mobile phase VI: VI = 40%Dioxane/55%H2O/5%HCl; for RF, Acetone/Water/Hydrochloric acid (conc.), mobile phase VI: VI = 55%AC/40%H2O/5%HCl; for RF, Methanol/Water/Hydrochloric acid (conc.), mobile phase VI: VI = 65%MeOH/30%H2O/5%HCl; for RF, Acetone/Water/Hydrochloric acid (conc.), mobile phase VII: VII = 50%AC/45%H2O/5%HCl; for RF, Methanol/Water/Hydrochloric acid (conc.), mobile phase VII: VII = 60%MeOH/35%H2O/5%HCl; for RF, Acetone/Water/Hydrochloric acid (conc.), mobile phase VIII: VIII = 45%AC/50%H2O/5%HCl; for RF, Methanol/Water/Hydrochloric acid (conc.), mobile phase VIII: VIII = 55%MeOH/40%H2O/5%HCl
Method: Chromatographic determination of lipophilicity
Merck, Darmstadt, Germany). The mobile phase contained organic modifier (methanol, acetone or dioxane), water and hydrochloric acid.
Methanol was varied in the range […]
with an increment of 10%. […]
before chromatogram development. The solvent developing distance was 4.5 cm. Detection of […]
All experiments were performed at ambient temperature (22±2 °C). Retention parameters were calculated as previously described. […]

[3] = logarithm of Ki in µM, BChE, dependent variable of the QSAR model, read-out: Y Measured 2 log(ki)Bche, log (Ki/µM BChE) (converted)
[4] = ± standard error, 25 °C, ATCh substrate, read-out: Ki BChE
[5] = log (Ki/µM AChE), read-out: Y Measured 1 log(ki)Ache (converted)
[6] = ± standard error, 25 °C, ATCh substrate, read-out: Ki AChE
[7] = Acetone/Water/Hydrochloric acid (conc.)
[8] = Dioxane/Water/Hydrochloric acid (conc.)
[9] = Methanol/Water/Hydrochloric acid (conc.)

T1 sequence (P06276 29-602): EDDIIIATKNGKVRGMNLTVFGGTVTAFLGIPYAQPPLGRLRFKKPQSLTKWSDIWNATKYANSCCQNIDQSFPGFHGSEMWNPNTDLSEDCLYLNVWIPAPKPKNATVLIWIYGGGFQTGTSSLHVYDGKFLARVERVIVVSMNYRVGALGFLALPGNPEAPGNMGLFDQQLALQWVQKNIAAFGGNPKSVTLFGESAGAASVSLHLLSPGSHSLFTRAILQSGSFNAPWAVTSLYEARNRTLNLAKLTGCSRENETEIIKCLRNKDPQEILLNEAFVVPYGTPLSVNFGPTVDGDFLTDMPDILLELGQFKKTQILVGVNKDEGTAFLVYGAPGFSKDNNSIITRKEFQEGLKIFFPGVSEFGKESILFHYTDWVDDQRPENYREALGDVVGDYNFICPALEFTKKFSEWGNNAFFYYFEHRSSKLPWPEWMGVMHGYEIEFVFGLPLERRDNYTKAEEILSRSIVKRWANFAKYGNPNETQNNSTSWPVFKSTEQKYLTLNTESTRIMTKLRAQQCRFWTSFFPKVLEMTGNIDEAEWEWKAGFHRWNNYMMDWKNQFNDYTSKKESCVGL
T2 sequence (P22303 32-614): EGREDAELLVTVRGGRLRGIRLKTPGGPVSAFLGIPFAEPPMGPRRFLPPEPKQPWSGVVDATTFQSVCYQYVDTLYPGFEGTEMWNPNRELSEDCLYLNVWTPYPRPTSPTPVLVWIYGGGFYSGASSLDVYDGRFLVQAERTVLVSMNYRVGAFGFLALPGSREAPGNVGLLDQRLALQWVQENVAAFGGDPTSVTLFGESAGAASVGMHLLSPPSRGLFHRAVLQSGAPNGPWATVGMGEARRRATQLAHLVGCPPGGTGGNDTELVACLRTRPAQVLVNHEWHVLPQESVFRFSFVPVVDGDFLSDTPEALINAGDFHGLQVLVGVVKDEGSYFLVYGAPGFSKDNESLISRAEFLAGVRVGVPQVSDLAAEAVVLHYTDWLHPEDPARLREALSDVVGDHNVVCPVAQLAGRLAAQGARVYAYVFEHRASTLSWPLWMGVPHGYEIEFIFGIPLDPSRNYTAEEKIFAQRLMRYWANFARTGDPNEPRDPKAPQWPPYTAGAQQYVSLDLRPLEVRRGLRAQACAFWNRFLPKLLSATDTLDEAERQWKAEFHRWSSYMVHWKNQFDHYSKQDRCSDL

Row | Structure (SMILES) | Ki (purified human BChE; [3]) | Ki (purified human BChE; [4]) | IS (recombinant human AChE) | Ki (recombinant human AChE; [5]) | Ki (recombinant human AChE; [6]) | FRAP ([1]; 10 µM compound) | FRAP ([1]; 100 µM compound) | RM0 [2, 7] | b [2, 7] | RM0 [2, 8] | b [2, 8] | RM0 [2, 9] | b [2, 9] | RF, Methanol/Water/Hydrochloric acid (conc.), mobile phase I [2] | RF, Dioxane/Water/Hydrochloric acid (conc.), mobile phase II [2] | RF, Methanol/Water/Hydrochloric acid (conc.), mobile phase II [2] | RF, Acetone/Water/Hydrochloric acid (conc.), mobile phase III [2] | RF, Dioxane/Water/Hydrochloric acid (conc.), mobile phase III [2] | RF, Methanol/Water/Hydrochloric acid (conc.), mobile phase III [2] | RF, Dioxane/Water/Hydrochloric acid (conc.), mobile phase IV [2] | other results
1 | Clc1ccc2c(NCCCCCCCCNCC34CC5CC(CC(C5)C3)C4)ccnc2c1 [Compound 5] | 0.0912 µM | 0.091 ± 0.007 µM | 1.2 | 0.0759 µM | 0.075 ± 0.06 µM | 9.5 ± 1.9 µM | 82 ± 4 µM | 2.706 | 4.173 | 1.151 | 2.214 | 3.7376 | 4.663 | 0.67 | 0.78 | 0.62 | 0.55 | 0.7 | 0.42 | 0.7 | increase in BChE inhibition vs compounds 3 and 4 (purified human BChE): about 9 times; more potent BChE inhibitor than galantamine (purified human BChE; comparator ref [63]): 12 times; less potent AChE inhibitor than donepezil and tacrine (recombinant human AChE): 2 to 3 times; increase in AChE inhibition potency (recombinant human AChE; n-octylene spacer vs unbranched compounds with shorter spacer): about 12 times; RF, Acetone/Water/Hydrochloric acid (conc.), mobile phase IV [2]: 0.49; RF, Methanol/Water/Hydrochloric acid (conc.), mobile phase IV [2]: 0.44; RF, Acetone/Water/Hydrochloric acid (conc.), mobile phase IX [2]: 0.04; RF, Methanol/Water/Hydrochloric acid (conc.), mobile phase IX [2]: 0.02; RF, Dioxane/Water/Hydrochloric acid (conc.), mobile phase V [2]: 0.47; RF, Acetone/Water/Hydrochloric acid (conc.), mobile phase V [2]: 0.39; RF, Methanol/Water/Hydrochloric acid (conc.), mobile phase V [2]: 0.34; RF, Dioxane/Water/Hydrochloric acid (conc.), mobile phase VI [2]: 0.31; RF, Acetone/Water/Hydrochloric acid (conc.), mobile phase VI [2]: 0.32; RF, Methanol/Water/Hydrochloric acid (conc.), mobile phase VI [2]: 0.23; RF, Acetone/Water/Hydrochloric acid (conc.), mobile phase VII [2]: 0.28; RF, Methanol/Water/Hydrochloric acid (conc.), mobile phase VII [2]: 0.11; RF, Acetone/Water/Hydrochloric acid (conc.), mobile phase VIII [2]: 0.19; RF, Methanol/Water/Hydrochloric acid (conc.), mobile phase VIII [2]: 0.07
2 | FC(F)(F)c1ccc2c(NCCNCC34CC5CC(CC(C5)C3)C4)ccnc2c1 [Compound 6] | 3.5 µM | 3.5 ± 0.3 µM | 2.9 | 1.2 µM | 1.2 ± 0.1 µM | 4.6 ± 0.8 µM | 25 ± 6 µM | 2.0143 | 3.169 | 0.9723 | 1.909 | 2.421 | 3.208 | 0.73 | 0.74 | 0.67 | 0.57 | 0.7 | 0.51 | 0.7 | RF, Acetone/Water/Hydrochloric acid (conc.), mobile phase IV [2]: 0.53; RF, Methanol/Water/Hydrochloric acid (conc.), mobile phase IV [2]: 0.53; RF, Acetone/Water/Hydrochloric acid (conc.), mobile phase IX [2]: 0.11; RF, Methanol/Water/Hydrochloric acid (conc.), mobile phase IX [2]: 0.11; RF, Dioxane/Water/Hydrochloric acid (conc.), mobile phase V [2]: 0.49; RF, Acetone/Water/Hydrochloric acid (conc.), mobile phase V [2]: 0.45; RF, Methanol/Water/Hydrochloric acid (conc.), mobile phase V [2]: 0.44; RF, Dioxane/Water/Hydrochloric acid (conc.), mobile phase VI [2]: 0.33; RF, Acetone/Water/Hydrochloric acid (conc.), mobile phase VI [2]: 0.36; RF, Methanol/Water/Hydrochloric acid (conc.), mobile phase VI [2]: 0.39; RF, Acetone/Water/Hydrochloric acid (conc.), mobile phase VII [2]: 0.32; RF, Methanol/Water/Hydrochloric acid (conc.), mobile phase VII [2]: 0.23; RF, Acetone/Water/Hydrochloric acid (conc.), mobile phase VIII [2]: 0.24; RF, Methanol/Water/Hydrochloric acid (conc.), mobile phase VIII [2]: 0.18
3 | FC(F)(F)c1ccc2c(NCCCNCC34CC5CC(CC(C5)C3)C4)ccnc2c1 [Compound 7] | 2.6 µM | 2.6 ± 0.2 µM | 2.4 | 1.1 µM | 1.1 µM | 7.1 ± 2.1 µM | 21 ± 7 µM | 2.012 | 3.156 | 0.9445 | 1.874 | 2.606 | 3.427 | 0.73 | 0.74 | 0.67 | 0.57 | 0.7 | 0.51 | 0.7 | RF, Acetone/Water/Hydrochloric acid (conc.), mobile phase IV [2]: 0.54; RF, Methanol/Water/Hydrochloric acid (conc.), mobile phase IV [2]: 0.51; RF, Acetone/Water/Hydrochloric acid (conc.), mobile phase IX [2]: 0.11; RF, Methanol/Water/Hydrochloric acid (conc.), mobile phase IX [2]: 0.09; RF, Dioxane/Water/Hydrochloric acid (conc.), mobile phase V [2]: 0.51; RF, Acetone/Water/Hydrochloric acid (conc.), mobile phase V [2]: 0.42; RF, Methanol/Water/Hydrochloric acid (conc.), mobile phase V [2]: 0.44; RF, Dioxane/Water/Hydrochloric acid (conc.), mobile phase VI [2]: 0.33; RF, Acetone/Water/Hydrochloric acid (conc.), mobile phase VI [2]: 0.36; RF, Methanol/Water/Hydrochloric acid (conc.), mobile phase VI [2]: 0.36; RF, Acetone/Water/Hydrochloric acid (conc.), mobile phase VII [2]: 0.32; RF, Methanol/Water/Hydrochloric acid (conc.), mobile phase VII [2]: 0.23; RF, Acetone/Water/Hydrochloric acid (conc.), mobile phase VIII [2]: 0.24; RF, Methanol/Water/Hydrochloric acid (conc.), mobile phase VIII [2]: 0.15
